Results reported in US20040209318A1, “Reagents and methods for the detection and quantification of vancomycin in bilogical fluids” (priority 1995, published 2004).

Target: anti-vancomycin Fab fragment
Assay: BIAcore solution competition, equilibrium dissociation constant
Type: binding, mouse
Conditions: in solution, 20 nM Fab fragment; read-out: Equilibrium Dissociation Constant (KD)
Description: Biosensor surfaces were regenerated after each injection with successive 1 minute pulses of 6 M, 6M, and 1.5 M guanidine hydrochloride. Initial rates of binding of anti-vancomycin Fab fragment to the biosensor surface were measured over a 15 second window beginning 20 seconds postinjection. Data was evaluated by non-linear regression analysis using the solution affinity model built into BIAevaluation 3.0 software (BIAcore, Inc).
The binding affinities of several vancomycin analogs and tracers for anti-vancomycin Fab fragment were determined from solution competition experiments carried out on a BIAcore 2000. Initially, known concentrations of anti-vancomycin Fab fragment (0-22 nM) were injected over the aminoalkyl vancomycin biosensor surface. The initial rate of binding for each anti-vancomycin Fab fragment concentration was obtained by averaging the observed binding rate over a […] window beginning 20 seconds post injection. Data from the first 20 seconds of each sensorgram were omitted due to sample dispersion effects at the start of injections. A plot of initial binding rate versus concentration of anti-vancomycin Fab fragment was fit using a 4-parameter logistic (general model in BIAevaluation 3.0) providing a standard curve. […] A fixed concentration of anti-vancomycin Fab fragment (20 nM) was then mixed with twelve concentrations of each vancomycin analog or tracer and allowed to reach equilibrium. The equilibrium mixtures were individually injected over the aminoalkyl vancomycin biosensor surface, and the concentration of free anti-vancomycin Fab fragment remaining was quantitated by determination of the initial rate of binding to the biosensor surface as described above. A plot of free anti-vancomycin Fab fragment versus total concentration of added analog or tracer provides a competition curve. […] The data points represent the experimentally determined concentrations of free anti-vancomycin Fab fragment in equilibrium solutions at a given concentration of soluble analog or tracer. The curves represent the best nonlinear fit of the data using equation 1 (solution affinity model in BIAevaluation software) below: [formula]
where Fabτ is the concentration of free anti-vancomycin Fab fragment in equilibrium solutions, Fabτ is the total concentration of anti-vancomycin Fab fragment in solution (20 nM), A is the total concentration of added vancomycin analog or tracer, and KD is the equilibrium dissociation constant for the binding of the vancomycin analog or tracer to anti-vancomycin Fab fragment in solution.

Row | Substance | Kd [µM]
1 | Crystalline degradation product (CDP) [compound 10] | 0.488 ± 0.034
2 | N-acetylvancosaminylvancomycin [compound 7] | ≤ 0.0002
3 | Ring-2 dechlorovancomycin [compound 8] | 0.087 ± 0.004
4 | aglucovancomycin [compound 6] | 42

The remaining lines, values ahead:

Row | Kd [µM] | Substance
5 | ≥ 50 | AglucoCDP [compound 11]
6 | 6 | Ring-2 dechloro CDP [compound 12]
